The values that follow are results of earlier work, collected in patent US20180193334A1, “PHARMACEUTICAL COMPOSITION OF VORTIOXETINE OR SALT THEREOF, AND PREPARATION METHOD THEREFOR” (Changzhou Fangnan Pharmaceuticals, Ltd., priority 2015, published 2018).

Values after ≈ are worked out from the molar mass of the structure shown.

For `Br.Cc1ccc(Sc2ccccc2N2CCNCC2)c(C)c1` [1-[2-(2,4-methylphenylthio)phenyl] piperazine hydrobromide], the solubility in water is 1200 µg/mL.

`Cc1ccc(Sc2ccccc2N2CCNCC2)c(C)c1` [vortioxetine free base]: the solubility in water is 100 µg/mL (≈ 335 µM).
